From US12052991B2, “Substituted pyridinyloxybenzenes and salts thereof and use thereof as herbicidal agents” (Bayer Aktiengesellschaft, priority 2018, dated 2024)

What was measured:
Format in all cases: in vivo
Agrostis tenuis (AGSTE) = assay: Herbicidal early post-emergence action (Table A1); settings: 1900 g/ha; scored visually 9 to 12 days after treatment; 100% = plants have died, 0% = like control plants
Experimental: (§1) Seeds of monocotyledonous and dicotyledonous weed plants were placed in 96-well microtiter plates in quartz sand and grown in a climatized chamber under controlled growth conditions. 5 to 7 days after sowing, the test plants were treated at the cotyledon stage. The compounds according to the invention, formulated in the form of emulsion concentrates (EC), were applied with a water application rate of the equivalent of 2200 liters per hectare. After the test plants had been left to stand in the climatized chamber for 9 to 12 days under optimum growth conditions, the effect of the preparations was scored visually in comparison to untreated controls. For example, 100% activity=the plants have died, 0% activity=like control plants. Tables A1 to A8 below show the effects of selected compounds of the general formula (I) according to Table 1 on various harmful plants and an application rate corresponding to 1900 g/ha, which were obtained by the experimental procedure mentioned above.

[1] = system: harmful plants AGSTE, DIPTE, LOLPE, MATCH, POAAN, SETVI, STEME and VERPE; assay: Herbicidal early post-emergence action, summary of Tables A1-A8; settings: application rate of 1900 g of active ingredient per hectare; summary in words
Experimental: as §1, with “plants.” for “plants. Tables A1 to A8 below show the effects of selected compounds of the general formula (I) according to Table 1 on various harmful plants and an application rate corresponding to 1900 g/ha, which were obtained by the experimental procedure mentioned above.”
Tables A1 to A8 below show the effects of selected compounds of the general formula (I) according to Table 1 on various harmful plants and an application rate corresponding to 1900 g/ha, which were obtained by the experimental procedure mentioned above.
As the results of Tables A1-A8 show, compounds no.

[2] = system: Amaranthus retroflexus (AMARE); assay: Herbicidal post-emergence action (Table B6); settings: visual rating about 3 weeks after treatment, 100% = plants have died, 0% = like control plants
In short: (§2)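 Visual percent activity relative to untreated controls (100% = plants dead, 0% = like controls) was scored about 3 weeks after treatment. Plants had been sprayed at the one-leaf stage with formulated compound at 1280 or 320 g/ha in 600 L/ha water containing 0.5% additive.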

Stellaria media (STEME) [3] = assay: Herbicidal post-emergence action (Table B8); settings: dosage 1280 g/ha; visual rating about 3 weeks after treatment; 100% = plants have died, 0% = like control plants
In short: as §2

Bassia scoparia (KCHSC) = assay: Herbicidal post-emergence action (Table B11); settings: dosage 1280 g/ha; visual rating about 3 weeks after treatment; 100% = plants have died, 0% = like control plants
Experimental: Seeds of mono- and dicotyledonous weed plants were placed in plastic pots in sandy loam soil (doubly sown with in each case one species of mono- or dicotyledonous weed plants per pot), covered with soil and cultivated in a greenhouse under controlled growth conditions. 2 to 3 weeks after sowing, the test plants were treated at the one-leaf stage. The compounds of the invention, formulated in the form of wettable powders (WP) or as emulsion concentrates (EC), were applied onto the green parts of the plants as aqueous suspension or emulsion with addition of 0.5% additive at a water application rate of 600 liters per hectare (converted). After the test plants had been kept in the greenhouse under optimum growth conditions for about 3 weeks, the activity of the preparations was rated visually in comparison to untreated controls. For example, 100% activity=the plants have died, 0% activity=like control plants. Tables B1 to B12 below show the effects of selected compounds of the general formula (I) according to Table 1 on various harmful plants and an application rate corresponding to 1280 or 320 g/ha, which were obtained by the experimental procedure mentioned above.

Veronica persica (VERPE) [4] = assay: Herbicidal post-emergence action (Table B12); settings: visual rating about 3 weeks after treatment, 100% = plants have died, 0% = like control plants
In short: as §2

Lolium rigidum (LOLRI) = assay: Herbicidal pre-emergence action, test C (Table C2); settings: dosage 1280 g/ha; visual scoring after about 3 weeks; 100% = plants have died, 0% = like control plants
Text: (§3) Seeds of mono- and dicotyledonous weed plants were placed in plastic pots in sandy loam soil (doubly sown with one species each of mono- or dicotyledonous weed plants per pot) and covered with soil. The compounds of the invention, formulated in the form of wettable powders (WP) or as emulsion concentrates (EC), were then applied onto the surface of the covering soil as aqueous suspension or emulsion with addition of 0.5% additive at a water application rate of 600 liters per hectare (converted). After the treatment, the pots were placed in a greenhouse and kept under good growth conditions for the test plants. After about 3 weeks, the effect of the preparations was scored visually in comparison with untreated controls as percentages. For example, 100% activity=the plants have died, 0% activity=like control plants. Tables C1 to C12 below show the effects of selected compounds of the general formula (I) according to Table 1 on various harmful plants and an application rate corresponding to 1280 or 320 g/ha, which were obtained by the experimental procedure mentioned above.

Poa annua (POAAN) = assay: Herbicidal pre-emergence action, test C (Table C3); settings: visual scoring after about 3 weeks, 100% = plants have died, 0% = like control plants
In short: (§4)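 Seeds are covered with sandy loam, and the formulated compound is applied to the soil surface before emergence at 1280 or 320 g/ha. Spray carries 0.5% additive at 600 L/ha. Damage is rated visually as percent versus untreated pots after roughly 3 weeks.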

Setaria viridis (SETVI) = assay: Herbicidal pre-emergence action, test C (Table C4); settings: dosage 1280 g/ha; visual scoring after about 3 weeks; 100% = plants have died, 0% = like control plants
In short: as §4

[5] = system: Abutilon theophrasti (ABUTH); assay: Herbicidal pre-emergence action, test C (Table C5); settings: dosage 1280 g/ha; visual scoring after about 3 weeks; 100% = plants have died, 0% = like control plants
In short: as §4

[6] = system: Amaranthus retroflexus (AMARE); assay: Herbicidal pre-emergence action, test C (Table C6); settings: visual scoring after about 3 weeks, 100% = plants have died, 0% = like control plants
In short: as §4

[7] = system: Matricaria inodora (MATIN); assay: Herbicidal pre-emergence action, test C (Table C7); settings: dosage 1280 g/ha; visual scoring after about 3 weeks; 100% = plants have died, 0% = like control plants
In short: as §4

Stellaria media (STEME) [8] = assay: Herbicidal pre-emergence action, test C (Table C8); settings: dosage 1280 g/ha; visual scoring after about 3 weeks; 100% = plants have died, 0% = like control plants
In short: as §4

[9] = system: Digitaria sanguinalis (DIGSA); assay: Herbicidal pre-emergence action, test C (Table C10); settings: dosage 1280 g/ha; visual scoring after about 3 weeks; 100% = plants have died, 0% = like control plants
In short: as §4

Veronica persica (VERPE) [10] = assay: Herbicidal pre-emergence action, test C (Table C12); settings: visual scoring vs untreated controls
In short: as §4

[11] = system: harmful plants ABUTH, AMARE, ECHCG, LOLRI, MATIN, POAAN, SETVI, STEME, ALOMY, DIGSA, KCHSC and VERPE; assay: Herbicidal post-emergence action, summary of Tables B1-B12; settings: application rate of 1280 or 320 g of active ingredient per hectare; summary in words
In short: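 Greenhouse weeds in sandy loam treated post-emergence at the one-leaf stage, 2–3 weeks after sowing, with WP or EC formulations sprayed with 0.5% additive at 600 L/ha water, 1280 or 320 g/ha. Damage rated visually after about 3 weeks versus untreated controls (0% = like control, 100% = dead).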

[12] = system: harmful plants ABUTH, AMARE, ECHCG, LOLRI, MATIN, POAAN, SETVI, STEME, ALOMY, DIGSA, KCHSC and VERPE; assay: Herbicidal pre-emergence action (test C), summary of Tables C1-C12; settings: application rate of 1280 or 320 g of active ingredient per hectare; summary in words
In short: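 Pre-emergence pot test in sandy loam: WP or EC formulations were sprayed onto the covering soil with 0.5% additive at 600 L/ha water, at 1280 or 320 g/ha. Plants were kept in the greenhouse, and activity was rated visually about 3 weeks later as % versus untreated controls (100% = dead).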

[13] = system: Abutilon theophrasti (ABUTH); assay: Herbicidal post-emergence action (Table B5); settings: 1280 g/ha; rated visually after about 3 weeks; 100% = plants have died, 0% = like control plants
In short: as §2

[14] = system: Echinochloa crus-galli (ECHCG); assay: Herbicidal pre-emergence action, test C (Table C1); settings: dosage 1280 g/ha; visual scoring after about 3 weeks; 100% = plants have died, 0% = like control plants
Text: as §3

Compound: Fc1ccc(Oc2ccc(Cl)cn2)c(-c2cc(C(F)F)on2)c1 [Example 1-30]
- Early post-emergence effect against Agrostis tenuis (AGSTE) (Agrostis tenuis (AGSTE)): 80%
- herbicidal activity against the harmful plants of Tables A1-A8 in early post-emergence treatment [1]: very good herbicidal activity

Compound: Fc1cccc(Oc2ncc(Cl)cc2Cl)c1-c1cc(C(F)F)on1 [Example 1-12]
- Early post-emergence effect against Agrostis tenuis (AGSTE) (Agrostis tenuis (AGSTE)): 80%
- herbicidal activity against the harmful plants of Tables A1-A8 in early post-emergence treatment [1]: very good herbicidal activity

Compound: FC(F)(F)c1cccc(-c2ccccc2Oc2ccccn2)n1 [Example 1-50]
- Early post-emergence effect against Agrostis tenuis (AGSTE) (Agrostis tenuis (AGSTE)): 80%
- herbicidal activity against the harmful plants of Tables A1-A8 in early post-emergence treatment [1]: very good herbicidal activity

Compound: Fc1cccc(Oc2ncc(C(F)(F)F)cc2Cl)c1-c1cc(C(F)F)on1 [Example 1-13]
- Early post-emergence effect against Agrostis tenuis (AGSTE) (Agrostis tenuis (AGSTE)): 80%
- herbicidal activity against the harmful plants of Tables A1-A8 in early post-emergence treatment [1]: very good herbicidal activity

Compound: Cn1nc(-c2c(F)cccc2Oc2ccc(Cl)cn2)cc1C(F)F [Example 1-64]
- Post-emergence action against Amaranthus retroflexus (AMARE) ([2]; dosage 320 g/ha): 100%
- Post-emergence action against Amaranthus retroflexus (AMARE) ([2]; dosage 1280 g/ha): 100%
- Post-emergence action against Stellaria media (STEME) (Stellaria media (STEME) [3]): 100%
- Post-emergence action against Bassia scoparia (KCHSC) (Bassia scoparia (KCHSC)): 90%
- Post-emergence action against Veronica persica (VERPE) (Veronica persica (VERPE) [4]; dosage 320 g/ha): 90%
- Post-emergence action against Veronica persica (VERPE) (Veronica persica (VERPE) [4]; dosage 1280 g/ha): 90%
- Pre-emergence action against Lolium rigidum (LOLRI) (Lolium rigidum (LOLRI)): 90%
- Pre-emergence action against Poa annua (POAAN) (Poa annua (POAAN); dosage 320 g/ha): 90%
- Pre-emergence action against Poa annua (POAAN) (Poa annua (POAAN); dosage 1280 g/ha): 100%
- Pre-emergence action against Setaria viridis (SETVI) (Setaria viridis (SETVI)): 100%
- Pre-emergence action against Abutilon theophrasti (ABUTH) [5]: 90%
- Pre-emergence action against Amaranthus retroflexus (AMARE) ([6]; dosage 320 g/ha): 100%
- Pre-emergence action against Amaranthus retroflexus (AMARE) ([6]; dosage 1280 g/ha): 100%
- Pre-emergence action against Matricaria inodora (MATIN) [7]: 90%
- Pre-emergence action against Stellaria media (STEME) (Stellaria media (STEME) [8]): 100%
- Pre-emergence action against Digitaria sanguinalis (DIGSA) [9]: 90%
- Pre-emergence action against Veronica persica (VERPE) (Veronica persica (VERPE) [10]; dosage 320 g/ha): 90%
- Pre-emergence action against Veronica persica (VERPE) (Veronica persica (VERPE) [10]; dosage 1280 g/ha): 100%
- herbicidal activity against the harmful plants of Tables B1-B12 in post-emergence treatment [11]: very good herbicidal activity
- herbicidal activity against the harmful plants of Tables C1-C12 in pre-emergence treatment [12]: very good herbicidal activity

Compound: N#Cc1ccc(Oc2cccc(F)c2-c2cc(C(F)F)on2)nc1 [Example 1-11]
- Post-emergence action against Abutilon theophrasti (ABUTH) [13]: 100%
- Post-emergence action against Amaranthus retroflexus (AMARE) ([2]; dosage 320 g/ha): 100%
- Post-emergence action against Amaranthus retroflexus (AMARE) ([2]; dosage 1280 g/ha): 100%
- Pre-emergence action against Echinochloa crus-galli (ECHCG) [14]: 90%
- Pre-emergence action against Poa annua (POAAN) (Poa annua (POAAN); dosage 1280 g/ha): 90%
- Pre-emergence action against Setaria viridis (SETVI) (Setaria viridis (SETVI)): 90%
- Pre-emergence action against Abutilon theophrasti (ABUTH) [5]: 100%
- Pre-emergence action against Amaranthus retroflexus (AMARE) ([6]; dosage 1280 g/ha): 100%
- Pre-emergence action against Matricaria inodora (MATIN) [7]: 90%
- Pre-emergence action against Stellaria media (STEME) (Stellaria media (STEME) [8]): 100%
- herbicidal activity against the harmful plants of Tables B1-B12 in post-emergence treatment [11]: very good herbicidal activity
- herbicidal activity against the harmful plants of Tables C1-C12 in pre-emergence treatment [12]: very good herbicidal activity

Compound: Oc1ccc(-c2cc(C(F)F)no2)c(Oc2ccc(Cl)cn2)c1 [Example 1-42]
- Early post-emergence effect against Agrostis tenuis (AGSTE) (Agrostis tenuis (AGSTE)): 80%
- herbicidal activity against the harmful plants of Tables A1-A8 in early post-emergence treatment [1]: very good herbicidal activity

Compound: Cn1nc(C(F)F)cc1-c1c(F)cccc1Oc1ncc(Cl)cc1F [Example 1-82]
- Early post-emergence effect against Agrostis tenuis (AGSTE) (Agrostis tenuis (AGSTE)): 80%
- herbicidal activity against the harmful plants of Tables A1-A8 in early post-emergence treatment [1]: very good herbicidal activity
